From patent publication US11905273B2, “Inhibitors for the B-catenin/B-cell lymphoma 9 (BCL9) protein-protein interaction” (H. LEE MOFFITT CANCER CENTER AND RESEARCH INSTITUTE, INC., priority 2017, dated 2024)
Structures can show the parent of a compound that is named as a salt. Where two headings read alike, the source gives them in different places.

Legend:
SW480 = experiment: MTs cancer cell growth inhibition assay, SW480; type: cell-based; settings: Wnt/β-catenin-hyperactive, 72 h, mean ± SD (n = 3)
Description: (§1) MTs Cell Viability Assay. Colorectal cancer cell lines, SW480 and HCT116, and triple-negative breast cancer cell line MDA-MB-231 were seeded in 96-well plates at 4=10^3 cells/well, maintained overnight at 37°C., and incubated in the presence of 1 and 2 at various concentrations. Cell viability was monitored after 72 h using a freshly prepared mixture of 1 part phenazine methosulfate (PMS, Sigma) solution (0.92 mg/mL) and 19 parts 3-(4,5-dimethylthiazol-2-yl)-5-(3-carboxymethoxyphenyl)-2-(4-sulfophenyl)-2H-tetrazolium (MTs, Promega) solution (2 mg/mL). Cells were incubated in 10 μL of this solution at 37° C. for 3 h, and A490 was measured. […] Experiments were performed in triplicate.

A549 = experiment: MTs growth inhibition assay, A549; type: cell-based; settings: Wnt-latent, mean ± SD (n = 3)
[1] = tested on: TOPFlash luciferase reporter (three wild-type Tcf binding sites) in SW480; experiment: Wnt-responsive TOPFlash luciferase reporter assay, SW480; type: cell-based; settings: 24 h treatment, mean ± SD (n = 3)
Description: (§2) Cell transfection and luciferase assay. FuGENE6(E269A, Promega) 96 well plate format was used for the transfection of HEK293 and SW480 cells according to the manufacturer's instruction. HEK293 cells were co-transfected with 45 ng of TOPFlash reporter gene, 135 ng pc DNA3.1-β-catenin, and 20 ng of pCMV-RL normalization reporter gene. SW480 cells were co-transfected with 60 ng of the TOPFlash or FOPFlash reporter gene and 40 ng of pCMV-RL, normalization reporter. Cells were cultured in DMEM and 10% FBS at 37° C. for 24 h, and different concentrations of inhibitors or DMSO was added After 24 h, the luciferase reporter activity was measured using the Dual-Glo system (E2940, Promega). Normalized luciferase activity in response to the treatment with 1 and 2 was compared with that obtained from the cells treated with DMSO. Experiments were performed in triplicate.

MDA-MB-231 = experiment: MTs cancer cell growth inhibition assay, MDA-MB-231; type: cell-based; settings: Wnt/β-catenin-hyperactive, 72 h, mean ± SD (n = 3)
Description: as §1

[2] = tested on: TOPFlash luciferase reporter (three wild-type Tcf binding sites) in β-catenin-activated HEK239; experiment: Wnt-responsive TOPFlash luciferase reporter assay, β-catenin-activated HEK293; type: cell-based; settings: 24 h treatment, mean ± SD (n = 3)
Description: as §2

β-catenin/BCL9 = β-catenin/BCL9 (Homo sapiens (Human), UniProt P35222); experiment: AlphaScreen competitive inhibition assay of the β-catenin/BCL9 interaction; type: binding; settings: read-out: Ki ± SD β-catenin/BCL9
Description: AlphaScreen Assays. All experiments were performed in shite opaque 384-well plates from PerkinElmer (Waltham, MA) with an assay buffer of 25 mM HEPES (pH=7.4), 100 Mm nAcL, 0.1% BSA, and 0.01% Triton X-100. All sample signals were read on a excitation wavelength was set at 680 nm and emission at 570 nm. All of the final reaction volumes were set to 25 μL. In the cross-titration experiments of the wild-type β-catenin//wild-ty-e BCL9 interaction, N-terminally biotinlyated BCL9 (from 0 to 60 nM) and C-terminally His6-tagged μcatenin (2.5, 5, 10, 20, 40, and 80 nM) were titrated in 20 μg/mL) were added. The mixture was then covered black and incubated at 4° C. for 1 h before detection. All addition and incubation was made under subdued lighting conditions due to the photosensitivity of the beads. The data were analyzed by nonlinear least-square analyses using GraphPad Prism 5.0. Each experiment was repeated three times, and the results were expressed as mean ±standard deviation. The competitive binding experiments were performed to determine the apparent Kd values. The rule of the competitive binding experiments for associating the IC50 value with the Kd value are: (1) the expected Kd value should be 10 times higher than the concentration of either tested protein: (2) the concentrations of both tested proteins should be lower than the binding capacities of their respective beads; and (3) the concentration of the target protein (His6-tagged β-catenin) should be 10 times lower than that of the ligand protein (biotinylated BCL9). […] The donor and acceptor beads were added to a final concentration of 10 μg/mL in 25 μL assay buffer. The mixture was covered black and incubated for 1 h at 4° C. before detection. The IC50 values, which sere also the apparent Kd values from the AlphaScreen assay, were determined by nonlinear least-square analyses using GraphPad Prism 5.0. Each experiment was repeated three times, and the results were expressed as mean ±standard deviation.
For the β-catenin/BCL9 competitive inhibition assay, 5 nM of biotinylated BCL9 and 40 nM of His6-tagged β-catenin were incubated in assay buffer at 4° C. for 30 min. Different concentrations of the tested inhibitor were added and incubated in 20 μL assay buffer at 4°C. for another 1 h. All of the above assay plates were covered and gently mixed on an orbital shaker. The donor and acceptor beads were then added to the plates to a final concentration of 10 μg/mL in 25 μL assay buffer. The mixture was incubated for 1 h at 4° C. before detection. The IC50 value was determined by nonlinear least-square analysis of GraphPad Prism 5.0. The inhibition constant (Ki) values were derived from the […] values using a method reported by Nikolovska-Coleska et al.^26. […] The results were expressed as mean ±standard deviation.

HCT116 = experiment: MTs cancer cell growth inhibition assay, HCT116; type: cell-based; settings: Wnt/β-catenin-hyperactive, 72 h, mean ± SD (n = 3)
Description: as §1

[3] = AlphaScreen, mean ± standard deviation (n = 3), Ki derived from IC50

Sequence of β-catenin/BCL9 (P35222 whole entry): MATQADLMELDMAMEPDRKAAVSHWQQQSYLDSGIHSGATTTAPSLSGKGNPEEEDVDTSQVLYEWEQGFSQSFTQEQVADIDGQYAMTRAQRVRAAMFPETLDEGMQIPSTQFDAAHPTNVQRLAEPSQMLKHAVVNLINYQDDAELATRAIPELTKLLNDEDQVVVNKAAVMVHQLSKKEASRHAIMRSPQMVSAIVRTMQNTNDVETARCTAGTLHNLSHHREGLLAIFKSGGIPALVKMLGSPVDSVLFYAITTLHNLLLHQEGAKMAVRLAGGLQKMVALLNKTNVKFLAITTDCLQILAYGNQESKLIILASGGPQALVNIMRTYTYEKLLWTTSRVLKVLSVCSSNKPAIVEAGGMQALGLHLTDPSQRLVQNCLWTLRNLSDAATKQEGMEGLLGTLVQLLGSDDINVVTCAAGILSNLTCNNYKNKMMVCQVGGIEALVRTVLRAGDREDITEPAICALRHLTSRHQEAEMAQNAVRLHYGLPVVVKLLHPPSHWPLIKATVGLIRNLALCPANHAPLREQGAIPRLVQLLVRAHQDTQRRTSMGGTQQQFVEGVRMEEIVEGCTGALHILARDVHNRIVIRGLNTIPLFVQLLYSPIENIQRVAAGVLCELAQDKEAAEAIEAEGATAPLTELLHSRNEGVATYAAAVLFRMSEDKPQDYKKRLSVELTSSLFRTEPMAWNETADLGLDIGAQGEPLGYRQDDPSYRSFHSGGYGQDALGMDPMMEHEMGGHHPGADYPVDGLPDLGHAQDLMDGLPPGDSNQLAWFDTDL

IC50 (SW480; Homo sapiens, SW480) [µM] | IC50 (A549; Homo sapiens, A549) [µM] | IC50 ([1]; Homo sapiens, SW480) [µM] | IC50 (MDA-MB-231; Homo sapiens, MDA-MB-231) [µM] | Ki (β-catenin/BCL9) [µM] | IC50 (HCT116; Homo sapiens, HCT-116) [µM] | Structure (SMILES) | IC50 ([2]; HEK239) [µM] | IC50 (SW480) [µM] | IC50 (A549) [µM] | Ki (β-catenin/BCL9; [3]) [µM] | IC50 (HCT116) [µM] | IC50 [1] [µM] | IC50 (MDA-MB-231) [µM] | IC50 [2] [µM]
3.6 ± 1.9 | 23 ± 4.4 | 12 ± 1.5 | 15 ± 6.1 | 8 ± 1.8 | 9.6 ± 2.5 | Fc1ccc(-c2cc(-c3ccc4cc(O[C@H]5CCNC5)c(-c5ccc(F)c(F)c5)cc4n3)ccc2O[C@H]2CCNC2)cc1 [Compound 1, 7-(3,4-difluorophenyl)-2-(4′-fluoro-6-((S)-pyrrolidin-3-yloxy)-[1,1′-biphenyl]-3-yl)-6-((S)-pyrrolidin-3-yloxy)quinoline dihydrochloride] | 26 ± 3.1 | – | – | – | – | – | – | –
1.7 ± 0.9 | 7.5 ± 2.9 | 7.9 ± 1.4 | 3.1 ± 1.2 | – | 2.2 ± 1 | Fc1ccc(-c2cc(-c3cnc4cc(O[C@H]5CCNC5)c(-c5ccc(F)c(F)c5)cc4c3)ccc2O[C@H]2CCNC2)cc1 [Compound 2, 6-(3.4-difluorophenyl)-3-(4′-fluoro-6-((S)-pyrrolidin-3-yloxy)-[1,1′-biphenyl]-3-yl)-7-((S)-pyrrolidin-3-yloxy)quinoline dihydrochloride] | 14 ± 1.5 | – | – | – | – | – | – | –
– | – | – | – | – | – | O=C(Nc1ccc(O[C@H]2CCNC2)c(-c2ccc(F)cc2)c1)c1ccc(O[C@H]2CCNC2)c(C2CCCCC2)c1 [Compound 3, 3-cyclohexyl-N-(4′-fluoro-6-(((S)-pyrrolidin-3-yl)oxy)-[1,1′-biphenyl]-3-4-(((S)-pyrrolidin-3-yl)oxy)benzamidedihydrochloride] | – | 6.6 ± 2.7 | 3.8 ± 1.5 | 14 ± 1.6 | 3.8 ± 1.5 | – | – | –
– | – | – | – | – | – | O=C(Nc1ccc(O[C@H]2CCNC2)c(-c2ccc(F)cc2)c1)c1ccc(O[C@H]2CCNC2)c(C2=CCCCC2)c1 [Compound 4, N-(4^+-fluoro-6-(((S)-pyrrolidin-3-yl)oxy)-[1,1′-biphenyl]-6-(((S)-pyrrolidin-3-yl)oxy)-2′,3′,4′,5′-tetrahydro-[1.1′-biphenyl]-3-carboxamidedihydrochloride] | – | 3.7 ± 2 | 8.9 ± 2.7 | 7.1 ± 2.5 | 6.9 ± 3.2 | 8.7 ± 2.3 | 3.4 ± 1.6 | –
– | – | – | – | – | – | O=C(Nc1ccc(O[C@H]2CCNC2)c(-c2ccc(F)cc2)c1)c1ccc(O[C@H]2CCNC2)c(C2CCC(C(F)(F)F)CC2)c1 (stereo partly drawn) [Compound 5, N-(-4′-fluoro-6-(((S)-pyrrolidin-3-yl)oxy)-[1,1′-biphenyl]-3-yl)-4-(((S)-pyrrolidin-3-yl)oxy)-3-(4-(trifluoromethyl)cyclohexyl) benzamide dilydrocholoride] | – | 3.6 ± 2.7 | 4.8 ± 2.4 | 4.2 ± 2.3 | 5.6 ± 2.7 | 10 ± 3.3 | 2.3 ± 1 | 10 ± 3.2
